Laboratory results as given in patent US7456179B2, “Methods of treating ischemic related conditions” (priority 2003, dated 2008).
“Also recorded” adds a separate entry of the source. Read-outs that look alike come from different tables or passages of the source.

Experiments:
Primary cortical neurons [1] = assay: H2O2-induced oxidative stress (150 μM), MTS assay, comparison with known neuroprotectants; assay type: cell-based, rat; details: 24 h pre-treatment, then harsh H2O2 treatment (150 μM)
Procedure: Primary cortical neurons were isolated from a 17 day old rat embryonic brain and seeded on 96-well plate at 50,000 cells/well in regular neurobasal medium for 2-3 week. Twice, half the amount of medium was replaced with fresh neurobasal medium containing no antioxidants. […] Other known neuroprotectants were dissolved in the proper solvent and diluted into final concentration as indicated. […] Each assay was performed in triplicate. After 24 hours, the cultures were evaluated for viability and mitochondrial function using a standard MTS Assay (Promega). The manufacturer's protocols were followed. Experiments were carried out following the procedures described in the Study Design described above. PAN-811 was dissolved in EtOH at 1 mg/ml (˜5 mM), and further diluted in neurobasal medium to final concentration at 0.1 μM, 1 μM, and 10 μM. Lipoic acid was dissolved in EtOH at concentration 240 mM, and further diluted in the neurobasal medium to final concentration at 10 uM, 25 uM, 50 uM and 100 uM. Vitamin E dissolved in EtOH at concentration 100 mM, and further diluted in the neurobasal medium to final concentration at 50 uM, 100 uM, 200 uM and 400 uM. Ginkgo Biloba was dissolved in dH2O at concentration 6 mg/ml, and further diluted in the neurobasal medium to final concentration at 2.5 ug/ml, 5 ug/ml, 25 ug/ml, 250 ug/ml. At the end of the treatment, the medium was replaced with 100 μl fresh pre-warmed neurobasal medium plus B27 (-AO). The plates were returned to the incubator at 37° C. with 5% CO2 for one hour. Subsequently 20 μl MTS reagent was added to each well and plates were incubated at 37° C. with 5% CO2 for an additional two hours. The absorbance at 490 nm for each well was recorded with the BioRad plate reader (Model 550). Wells containing medium alone were used as blanks. Each data point is the average of three separate assay wells. […] Two weeks old primary cultures were used for this set of study. Please see FIG. 1 for results.

Primary cortical neurons [2] = assay: ROS generation, CM-H2DCFDA / c-DCF fluorescence; assay type: cell-based, rat; details: at 10 μM
Procedure: Primary cortical neurons were isolated from a 17 day old rat embryonic brain and seeded in 96-well plates at 50,000 cells/well in regular neurobasal medium for 2-3 weeks. Twice, half the amount of medium was replaced with fresh neurobasal medium without antioxidants. […] Untreated cells loaded with the dye were used as controls to calculate the c-DCF fluorescence change. Each assay was performed in triplicate. Experiments were carried out following the procedures described in the Study Design described above. The c-DCF fluorescence at 485/520 nm (Ex/Em) for each well was recorded with the BMG polar star plate reader. Wells containing cells without dye were used as blanks. Each data point is the average of three separate assay wells. Untreated cells loaded with the dye were used as a control to calculate the c-DCF fluorescence change. Two weeks old primary cultures were used for the study.

Primary cortical neurons [3] = assay: H2O2-induced oxidative stress (60-70 μM), MTS assay; assay type: cell-based, rat; details: 1-10 μM, 24 h pre-treatment, then 60-70 μM H2O2, MTS
Procedure: Primary cortical neurons were isolated from a 17 day old rat embryonic brain and seeded on 96-well plate at 50,000 cells/well in regular neurobasal medium for 2-3 week. Twice, half amount of medium was replaced with fresh neurobasal medium containing no antioxidants. […] Each assay was performed in triplicate. […] After 24 hours, the cultures were evaluated for viability and mitochondrial function using a standard MTS Assay (Promega). The manufacturer's protocols were followed. Experiments were carried out following the procedures described in the study design. At the end of the treatment, all treatments and medium were replaced with 100 μl fresh pre-warmed neurobasal medium plus B27 (-AO). The plates were put back into the incubator at 37° C. with 5% CO2 for one hour, then 20 μl MTS reagent was added to each well and plates were incubated at 37° C. with 5% CO2 for an additional two hours. The absorbance at 490 nm for each well was recorded with the BioRad plate reader (Model 550). Wells containing medium alone well was used as blanks. Each data point is the average of three separate assay wells. […] Three weeks old primary cultures were used for this set of study. Please see FIG. 10 for results. Experiments were carried out following the same procedures as experiment 1.

Cortical neurons [4] = details: for protection from neuronal cell death (morphology): 5 μM, hypoxia, FIG. 4
Procedure: (§1) Experiments were performed in a 96-well plate format. Cortical neurons were seeded at a density of 50,000 cells/well on poly-D-lysine coated surface, and cultured in serum-free medium (NB plus B27 supplement) to obtain cultures high-enriched for neurons. Neurons were cultured for over 14 d.i.v. to increase cell susceptibility to excitatory amino acids (Jiang et al., 2001). Six replicate wells were treated as a group to facilitate assay quantitation.
(§2) To mimic the cerebral environments of a stroke, we established 3 in vitro model systems. The extreme H/H model (0.4 mM glucose) is a mimic of the environment in the central core of an infarct; the mild H/H model (1.63 mM glucose) is a mimic of the environment in the penumbra during MCAO; and the hypoxia only model (neurons in normal in vitro glucose concentration—25 mM) is a mimic of the environment in the penumbra after reperfusion since the possible cell death after reperfusion is predominantly a result of the hypoxic effect rather then energy failure.
(§3) Hypoxia/hypoglycemia was obtained by reducing glucose concentration down to 0.4 mM and 1.63 mM for extreme H/H and mild H/H respectively. BSS (116.0 mM NaCl, 5.4 mM KCl, 0.8 mM MgSO4.7H2O, 1.0 mM NaH2PO4, 1.8 mM CaCl2.2H2O, 26.2 mM NaHCO3, and 0.01 mM Glycine) or BSS with 25 mM glucose were de-gassed for 5 minutes prior to use. Culture medium in the plates for hypoxia was replaced with BSS or BSS with glucose. Meanwhile, culture medium in the plates for normoxia was replaced with non de-gassed BSS or BSS with glucose. Cells were committed to hypoxic conditions by transferring the plates into a sealed container (Modular Incubator Chamber-101TM, Billups-Rothenberg, Inc.), applying a vacuum for 20 minutes to remove O2 or other gases from the culture medium, and then refilling the chamber with 5% CO2 and 95% N2 at a pressure of 30 psi for 1 minute. The level of O2 in the chamber was determined to be zero with an O2 indicator (FYRITE Gas Analyzer, Bacharach, Inc.). Culture plates were maintained in the chamber for 6 hours. As an experimental control, duplicate culture plates were maintained under normal culture condition (5% CO2 and 95% ambient air) for the same duration. After a 6-hour treatment plates were removed from the chamber and the medium in both the hypoxic and normoxic cultures was replaced with a termination solution (DMEM supplemented with 1× sodium pyruvate, 10.0 mM HEPES, and 1×N2 supplement) containing 25 mM glucose and cultured in 5% CO2 and 95% ambient air conditions. […] MK801 was utilized as a positive control. Mitochondrial function and cell death were evaluated at 24 or 48 hours post H/H insult with the MTS and LDH analyses (see below).
Treatment with drug was continued during and subsequent to a 24-hour period of hypoxia. Cellular morphology and function (MTS and LDH assays) were measured 24 or 48 hours subsequent to the hypoxic insult.
(§4) The MTS assay is a colorimetric assay that measures the mitochondrial function in metabolically active cells. This measurement indirectly reflects cell viability. […] 20 μl of MTS reagent (Promega) are added to each well of the 96 well assay plates containing the samples in 100 μl of culture medium. The plate is then incubated in a humidified, 5% CO2 atmosphere at 37° C. for 1-2 hours until the color is fully developed. The absorbance at 490 nm was recorded using a Bio-Rad 96 well plate reader.
Lactate dehydrogenase (LDH) assay is based on the reduction of NAD by the action of LDH.

[5] = test system: male Sprague-Dawley rats, MCAO
[6] = Solubility of PAN-811 in solvents; details: PEG-300/EtOH (70%/30%) versus EtOH
Procedure: PAN-811 was dissolved in either EtOH or DMSO at 1 mg/ml (˜5 mM), in PEG-300/EtOH (70%/30%) at 5 mg/ml (˜25 mM), and further diluted in medium to final concentration at 1 μM, 5 μM, 20 μM and 50 μM. […] Equal volume of solvents (EtOH, DMSO, and PEG-300/EtOH) was added to cells to test the solvent effects on the assay.

[7] = test system: enriched neuronal cultures (cerebellar tissue); assay: Neurotoxicity of PAN-811, MTT assay; details: 24 hrs
Procedure: Neuronal culture. Enriched neuronal cultures were prepared from 15-day-old Sprague-Dawley rat embryos. Using aseptic techniques, the rat embryos were removed from the uterus and placed in sterile neuronal culture medium. Using a dissecting microscope, the brain tissue was removed from each embryo, with care taken to discard the meninges and blood vessels. […] Cells were dissociated by trituration of the tissue and were plated at a density of 5×10^5 cells/well onto 48-well culture plates precoated with poly(L-lysine). […]
3.3.1.2 Neurotoxicity of PAN-811. […] Cell viability was determined in the MTT assay.
3.1.3.4 MTT Assay. […] Cell damage was quantitatively assessed using a tetrazolium salt colorimetric assay with 3-(4,5-dimethylthiazol-2-yl)-2,5-diphenyltetrazolium (MTT; Sigma Chemical Co., St. Louis, Mo.). Briefly, the dye was added to each well (final concentration, 1.5 mg/ml), cells were incubated with MTT-acidified isopropanol (0.1 N HCl in isopropanol), and the absorbance intensity (540 nm) of each sample was measured in a 96-well plate reader. Values are expressed relative to vehicle-treated control cells that were maintained on each plate, and the percentage change in cell viability was calculated.

Cortical neurons [8] = assay: Extreme hypoxia/hypoglycemia (H/H) model (0.4 mM glucose)
Procedure: as §1
To mimic the cerebral environments of a stroke, we established 3 in vitro model systems. […]
Hypoxia/hypoglycemia was obtained by reducing glucose concentration down to 0.4 mM and 1.63 mM for extreme H/H and mild H/H respectively. […] The level of O2 in the chamber was determined to be zero with an O2 indicator (FYRITE Gas Analyzer, Bacharach, Inc.). […] Mitochondrial function and cell death were evaluated at 24 or 48 hours post H/H insult with the MTS and LDH analyses (see below).
The MTS assay is a colorimetric assay that measures the mitochondrial function in metabolically active cells. […] The absorbance at 490 nm was recorded using a Bio-Rad 96 well plate reader. […]

Cortical neurons [9] = details: for protection from mild H/H: pre-treatment 24 h, H/H 6 h
Procedure: as §1, §2, §3, §4
Lactate dehydrogenase (LDH) assay is based on the reduction of NAD by the action of LDH. The resulting reduced NAD (NADH) is utilized in the stoichiometric conversion of a tetrazolium dye. If cell-free aliquots of medium from cultures given different treatments are assayed, then the amount of LDH activity can be used as an indicator of relative cell death as well as a function of membrane integrity. A 50 μl aliquot of culture medium from a well in tested 96-well plate is transferred into a well in unused plate and supplemented with 25 μl of equally-mixed Substrate, Enzyme and Dye Solutions (Sigma).

[10] = test system: enriched neuronal cultures (cerebellar tissue); assay: In vitro models of excitotoxicity (H/H, glutamate, staurosporine, veratridine), MTT assay; details: MTT 24 hrs after insult
Procedure: Neuronal culture. Enriched neuronal cultures were prepared from 15-day-old Sprague-Dawley rat embryos. Using aseptic techniques, the rat embryos were removed from the uterus and placed in sterile neuronal culture medium. Using a dissecting microscope, the brain tissue was removed from each embryo, with care taken to discard the meninges and blood vessels. […] Cells were dissociated by trituration of the tissue and were plated at a density of 5×10^5 cells/well onto 48-well culture plates precoated with poly(L-lysine). Cultures were maintained in a medium containing equal parts of Eagle's basal medium (without glutamine) and Ham's F-12k medium supplemented with 10% heat-inactivated horse serum, 10% fetal bovine serum, 600 μg/ml glucose, 100 μg/ml glutamine, 50 U/ml penicillin, and 50 μg/ml streptomycin. After 48 h, 10 μM cytosine arabinoside was added to inhibit non-neuronal cell division. Cells were used in experiments after 7 days in culture.
Four in vitro models of excitotoxicity were studied. Cells were either exposed to H/H conditions for 3 hrs or treated for 45 min with either glutamate (100 μM), staurosporine (1 μM) or veratridine (10 μM). All cells were cotreated with or without PAN-811 (10 μM) in Locke's solution. At the conclusion of the respective excitotoxic exposures, the condition medium (original) was replaced. H/H was induced by incubating the cells in a humidified airtight chamber saturated with 95% nitrogen, 5% CO2 gas for 3 hrs. in Locke's solution without added glucose.
24 hrs. after the excitotoxic insult cell viability assessments were made. Cell damage was quantitatively assessed using a tetrazolium salt colorimetric assay with 3-(4,5-dimethylthiazol-2-yl)-2,5-diphenyltetrazolium (MTT; Sigma Chemical Co., St. Louis, Mo.). Briefly, the dye was added to each well (final concentration, 1.5 mg/ml), cells were incubated with MTT-acidified isopropanol (0.1 N HCl in isopropanol), and the absorbance intensity (540 nm) of each sample was measured in a 96-well plate reader. Values are expressed relative to vehicle-treated control cells that were maintained on each plate, and the percentage change in cell viability was calculated.

## NC(=S)N/N=C/c1ncccc1N [PAN-811, 3-aminopyridine-2-carboxaldehyde thiosemicarbazone]
Primary cortical neurons [1]; PAN-811 at 1-10 μM
  neuroprotective capacity: good neuroprotective capacity; also recorded: significant neuroprotection
Primary cortical neurons [2]
  reduction of the basal level of ROS generation: ~50%
Primary cortical neurons [2]; 1 h, then 300 μM H2O2 for 2 hours
  reduction of H2O2-induced ROS generation: ~30%
Primary cortical neurons [3]
  neuroprotective capacity: good neuroprotective capacity
Cortical neurons [4]; 2 μM, 24 hours prior to, during and subsequent to 24-hour hypoxia
  block of neuronal cell death and mitochondrial dysfunction: completely blocking neuronal cell death and mitochondrial dysfunction
Cortical neurons [4]; 2 μM, 48 h prior to, during 24-hour hypoxia and 48 h subsequent
  block of hypoxia-induced cell death: completely blocked the cell death
Cortical neurons [4]
  protection from neuronal cell death (morphology): efficient protection from neuronal cell death
Cortical neurons [4]; at 2 μM
  protection from sole hypoxia-induced neurotoxicity: completely protected
[5]; 1 mg/kg IV 10 minutes prior to 2 h MCAO, 24 hours after surgery
  range of infarct volume: 42.36-387.08 mm^3
[5]; 1 mg/kg IV 10 minutes prior to 2 h MCAO, 24 hours after surgery, n 14
  mean infarct volume: 225.85 mm^3
[5]; 1 mg/kg IV 10 minutes prior to MCAO, p<0.05
  % protection (reduction in average infarct volume vs vehicle): 23%
[5]; 1 mg/kg IV, 6 of the 7 deaths were vehicle rats
  rats that died (of 7 deaths from severe stroke or SAH): 1 rat
[5]; rat, in vivo
  tolerability / toxicity: well tolerated and relatively non-toxic
[6]
  solubility: better solubility in PEG-300/EtOH comparing to EtOH alone
[7]; concentrations up to 100 μM
  neurotoxicity: only slight toxicity
[7]; highest concentration tested (100 μM)
  maximal toxicity: 7.8%
Cortical neurons [8]; at 100 μM
  block of extreme H/H-induced neuronal cell death: only partially blocked
Cortical neurons [8]; at ≦50 μM, extreme H/H (data not shown)
  protection from neuronal cell death: did not protect neuronal cell death
Cortical neurons [9]; 2 μM, Apr. 17, 2003, culture age 13 days, 48 h post H/H
  protection from mild H/H: 100% protected
Cortical neurons [9]; 2 μM, Jul. 9, 2003, culture age 13 days, 20 h post H/H
  protection from mild H/H: 100% protected
Cortical neurons [9]; 2 μM, May 2, 2003, culture age 22 days, 24 h post H/H
  protection from mild H/H: 100% protected
Cortical neurons [9]; 2 μM, May 8, 2003, culture age 42 days, 24 h post H/H
  protection from mild H/H: 100% protected
Cortical neurons [9]; 5 μM, 24 hours before and during 6-hour H/H, 15-day culture, MTS and LDH 17 hours post
  protection from H/H-induced mitochondria dysfunction and neuronal cell death: completely protected
Cortical neurons [9]; 5 μM, Jul. 25, 2003, culture age 15 days, 24 h post H/H, test range started from 5 μM
  protection from mild H/H: 100% protected
Cortical neurons [9]; 10 μM, Jul. 13, 2003, culture age 15 days, 24 h post H/H, test range started from 5 μM
  protection from mild H/H: 100% protected
Cortical neurons [9]; at 2 μM
  protection from mild H/H induced neurotoxicity: completely protected
Cortical neurons [9]; treatment 24 h before 6-hour H/H only, LDH 48 hours after H/H
  protection from neuronal cell death (LDH): marginally
[10]; 10 μM PAN-811, 1 μM staurosporine 45 min
  protection from damage by staurosporine: ~47%
[10]; 10 μM PAN-811, 10 μM veratridine 45 min
  protection from damage by veratridine: ~39%
[10]; 10 μM PAN-811, 100 μM glutamate 45 min
  protection from damage by glutamate: ~75%
[10]; 10 μM PAN-811, 3 hour H/H
  protection from damage by hypoxia/hypoglycemia: 92%

## C[C@]12N[C@H](Cc3ccccc31)c1ccccc12 [MK801, reference compound]
Cortical neurons [4]
  protection from neuronal cell death (morphology): efficient protection from neuronal cell death

## O=C(O)CCCC[C@@H]1CCSS1 (racemic) [Lipoic acid, reference compound]
Primary cortical neurons [1]; known neuroprotectants
  neuroprotective capacity: minimal neuroprotective capacity

## Vitamin E [reference compound]
Primary cortical neurons [1]; known neuroprotectants
  neuroprotective capacity: minimal neuroprotective capacity
